Reference: patent US9630977B2, “Cephalosporin derivatives and pharmaceutical compositions thereof” (Legochem Biosciences, Inc., priority 2011, dated 2017)
In brackets after ≈: the same amount, converted by molar mass. Like-named read-outs stand apart in the source and are kept apart here.

Legend:
Assay in all cases: In vitro antibacterial activity test (broth microdilution)
Type in all cases: cell-based
E. coli β4 = settings: Escherichia coli
Description: (§1) To evaluate antibacterial activity of each of the compounds of Examples 1 to 68, in vitro antibacterial activity test was performed.
(§2) The in vitro antibacterial activity was evaluated by measuring MIC90 (ug/mL) of each of the compounds of Examples 1 to 68, which is defined as the lowest concentration of an antibiotic that will inhibit the visible growth of 90% of microorganisms after incubation as compared with a control group to which the antibiotic is not treated. MIC90 values were measured by the broth microdilution method developed by the Clinical and Laboratory Standards Institute (CLSI) (see CLSI M7-A5, Methods for Dilution Antimicrobial Susceptibility Test for Bacteria that Grow Aerobically-Fifth Edition (2000): CLSI, Villanova, Pa.).
(§3) In vitro antibacterial activity was measured with respect to the following 19 clinical isolates: M. catarrhalis; P. aeruginosa (5 strains); K. pneumoniae (6 strains); A. baumannii (3 strains); E. coli (2 strains); A. calcoaceticus; and E. cloacae.
(§4) Test compounds each (the cephalosporin derivative compounds prepared in Examples 1 to 68) were dissolved in DMSO at the concentration of 10,240 ug/mL, were diluted by two fold with DMSO, and then were diluted by twenty fold with sterilized distilled water. The final concentration in the antibacterial activity test was in the range of […] to 128 ug/mL, and the final concentration of DMSO used as an adjuvant was 2.5% (V/V).

M. catarrhalis 2524 = settings: Moraxella catarrhalis
Description: as §1, §2, §3, §4

[1] = tested on: A. calcoaceticus ATCC15473; settings: Acinetobacter calcoaceticus
Description: as §1, §2, §3, §4

P. aeruginosa 40 = tested on: P. aeruginosa 40
Description: as §1, §2, §3, §4

K. pneumoniae β9 = settings: Klebsiella pneumoniae
Description: as §1, §2, §3, §4

K. pneumoniae β10 = settings: Klebsiella pneumoniae
Description: as §1, §2, §3, §4

P. aeruginosa 1912E = settings: Pseudomonas aeruginosa, 1912E
Description: as §1, §2, §3, §4

E. coli AG100 = settings: Escherichia coli
Description: as §1, §2, §3, §4

E. cloacae β19 = settings: Enterobacter cloacae
Description: as §1, §2, §3, §4

K. pneumoniae 2011E = settings: Klebsiella pneumoniae, 2011E
Description: as §1, §2, §3, §4

K. pneumoniae β14 = settings: Klebsiella pneumoniae
Description: as §1, §2, §3, §4

A. baumannii 46 = tested on: A. baumannii 46
Description: as §1, §2, §3, §4

K. pneumoniae β13 = settings: Klebsiella pneumoniae
Description: as §1, §2, §3, §4

A. baumannii 49 = tested on: A. baumannii 49
Description: as §1, §2, §3, §4

P. aeruginosa 37 = settings: Pseudomonas aeruginosa, 37, P. aeruginosa 37
Description: as §1, §2, §3, §4

K. pneumoniae β11 = settings: Klebsiella pneumoniae
Description: as §1, §2, §3, §4

P. aeruginosa 43 = settings: Pseudomonas aeruginosa
Description: as §1, §2, §3, §4

P. aeruginosa 6065Y = settings: Pseudomonas aeruginosa
Description: as §1, §2, §3, §4

A. baumannii 52 = settings: Acinetobacter baumannii
Description: as §1, §2, §3, §4

[2] = M. catarrhalis 2524, read-out: MIC90
[3] = A. calcoaceticus ATCC15473, read-out: MIC90
[4] = Pseudomonas aeruginosa, 40, P. aeruginosa 40, read-out: MIC90
[5] = K. pneumoniae β9, read-out: MIC90
[6] = K. pneumoniae β10, read-out: MIC90
[7] = AG100, E. coli AG100, read-out: MIC90
[8] = K. pneumoniae 2011E, read-out: MIC90
[9] = Acinetobacter baumannii, A. baumannii 46, read-out: MIC90
[10] = K. pneumoniae β13, read-out: MIC90
[11] = Acinetobacter baumannii, A. baumannii 49, read-out: MIC90
[12] = K. pneumoniae β11, read-out: MIC90
[13] = P. aeruginosa 43, read-out: MIC90
[14] = A. baumannii 52, read-out: MIC90
[15] = ATCC15473, A. calcoaceticus ATCC15473
[16] = Acinetobacter baumannii, 46, A. baumannii 46
[17] = Acinetobacter baumannii, 49, A. baumannii 49

Row | MIC90 (E. coli β4; read-out: MIC90) | Structure (SMILES) | MIC90 (E. coli β4) | MIC90 (M. catarrhalis 2524; 2524) | MIC90 [1, 15] | MIC90 (P. aeruginosa 40; Pseudomonas aeruginosa, 40) | MIC90 (K. pneumoniae β9) | MIC90 (K. pneumoniae β10) | MIC90 (P. aeruginosa 1912E) | MIC90 (E. coli AG100; AG100) | MIC90 (E. cloacae β19) | MIC90 (K. pneumoniae 2011E) | MIC90 (K. pneumoniae β14) | MIC90 (A. baumannii 46; [16]) | MIC90 (K. pneumoniae β13) | MIC90 (A. baumannii 49; [17]) | MIC90 (P. aeruginosa 37) | MIC90 (K. pneumoniae β11) | MIC90 (P. aeruginosa 43; 43) | MIC90 (P. aeruginosa 6065Y; 6065Y) | MIC90 (A. baumannii 52; 52) | also measured
1 | < 0.0625 µg/mL | CC(C)(O/N=C(\C(=O)N[C@@H]1C(=O)N2C(C(=O)[O-])=C(/C=C/C[n+]3cnc(N)c(NCCNC(=O)c4cc(=O)c(O)cn4O)c3)CSC12)c1nsc(N)n1)C(=O)O (some centres unmarked) [Compound 25] |  |  |  |  |  |  |  |  |  |  |  |  |  |  |  |  |  |  |  | MIC90 (M. catarrhalis 2524; [2]): < 0.0625 µg/mL; MIC90 [1, 3]: 0.25 µg/mL (≈ 0.312 µM); MIC90 (P. aeruginosa 40; [4]): < 0.0625 µg/mL; MIC90 (K. pneumoniae β9; [5]): < 0.0625 µg/mL; MIC90 (K. pneumoniae β10; [6]): < 0.0625 µg/mL; MIC90 (P. aeruginosa 1912E; read-out: MIC90): 0.25 µg/mL (≈ 0.312 µM); MIC90 (E. coli AG100; [7]): < 0.0625 µg/mL; MIC90 (E. cloacae β19; read-out: MIC90): 1 µg/mL (≈ 1.25 µM); MIC90 (K. pneumoniae 2011E; [8]): 0.25 µg/mL (≈ 0.312 µM); MIC90 (K. pneumoniae β14; read-out: MIC90): 16 µg/mL (≈ 20 µM); MIC90 (A. baumannii 46; [9]): 0.5 µg/mL (≈ 0.624 µM); MIC90 (K. pneumoniae β13; [10]): < 0.0625 µg/mL; MIC90 (A. baumannii 49; [11]): 128 µg/mL (≈ 160 µM); MIC90 (P. aeruginosa 37; read-out: MIC90): < 0.0625 µg/mL; MIC90 (K. pneumoniae β11; [12]): > 128 µg/mL; MIC90 (P. aeruginosa 43; [13]): 0.25 µg/mL (≈ 0.312 µM); MIC90 (P. aeruginosa 6065Y; read-out: MIC90): 0.5 µg/mL (≈ 0.624 µM); MIC90 (A. baumannii 52; [14]): 8 µg/mL (≈ 9.99 µM)
2 |  | C[C@H](O/N=C(\C(=O)N[C@@H]1C(=O)N2C(C(=O)[O-])=C(/C=C/C[n+]3cnc(N)c(NCCN)c3)CSC12)c1csc(N)n1)C(=O)O (some centres unmarked) [Compound 52] | < 0.0625 µg/mL | < 0.0625 µg/mL | 1 µg/mL (≈ 1.58 µM) | 2 µg/mL (≈ 3.16 µM) | 4 µg/mL (≈ 6.32 µM) | 1 µg/mL (≈ 1.58 µM) | 0.5 µg/mL (≈ 0.79 µM) | < 0.0625 µg/mL | 8 µg/mL (≈ 12.6 µM) | < 0.0625 µg/mL | 8 µg/mL (≈ 12.6 µM) | 1 µg/mL (≈ 1.58 µM) | 4 µg/mL (≈ 6.32 µM) | > 128 µg/mL | 16 µg/mL (≈ 25.3 µM) | 128 µg/mL (≈ 202 µM) | 32 µg/mL (≈ 50.6 µM) | 4 µg/mL (≈ 6.32 µM) | > 128 µg/mL | 
3 | 16 µg/mL (≈ 19.8 µM) | CC(C)(O/N=C(\C(=O)N[C@@H]1C(=O)N2C(C(=O)[O-])=C(C[n+]3cnc(N)c(NCCNC(=O)c4cc(=O)c(O)cn4O)c3)CSC12)c1nc(N)sc1Cl)C(=O)O (some centres unmarked) [Compound 15] |  |  |  |  |  |  |  |  |  |  |  |  |  |  |  |  |  |  |  | MIC90 (M. catarrhalis 2524; [2]): 0.25 µg/mL (≈ 0.309 µM); MIC90 [1, 3]: 0.5 µg/mL (≈ 0.619 µM); MIC90 (P. aeruginosa 40; [4]): 0.5 µg/mL (≈ 0.619 µM); MIC90 (K. pneumoniae β9; [5]): 4 µg/mL (≈ 4.95 µM); MIC90 (K. pneumoniae β10; [6]): 0.25 µg/mL (≈ 0.309 µM); MIC90 (P. aeruginosa 1912E; read-out: MIC90): 0.5 µg/mL (≈ 0.619 µM); MIC90 (E. coli AG100; [7]): 2 µg/mL (≈ 2.47 µM); MIC90 (E. cloacae β19; read-out: MIC90): 32 µg/mL (≈ 39.6 µM); MIC90 (K. pneumoniae 2011E; [8]): 8 µg/mL (≈ 9.9 µM); MIC90 (K. pneumoniae β14; read-out: MIC90): 128 µg/mL (≈ 158 µM); MIC90 (A. baumannii 46; [9]): 128 µg/mL (≈ 158 µM); MIC90 (K. pneumoniae β13; [10]): 2 µg/mL (≈ 2.47 µM); MIC90 (A. baumannii 49; [11]): 8 µg/mL (≈ 9.9 µM); MIC90 (P. aeruginosa 37; read-out: MIC90): 0.125 µg/mL (≈ 0.155 µM); MIC90 (K. pneumoniae β11; [12]): 64 µg/mL (≈ 79.2 µM); MIC90 (P. aeruginosa 43; [13]): 0.25 µg/mL (≈ 0.309 µM); MIC90 (P. aeruginosa 6065Y; read-out: MIC90): 1 µg/mL (≈ 1.24 µM); MIC90 (A. baumannii 52; [14]): 2 µg/mL (≈ 2.47 µM)
4 |  | CC(C)(O/N=C(\C(=O)N[C@@H]1C(=O)N2C(C(=O)[O-])=C(/C=C/C[n+]3cnc(N)c(NC(=O)CCN)c3)CSC12)c1csc(N)n1)C(=O)O (some centres unmarked) [Compound 60] | 0.25 µg/mL (≈ 0.371 µM) | < 0.0625 µg/mL | 1 µg/mL (≈ 1.48 µM) | 8 µg/mL (≈ 11.9 µM) | 1 µg/mL (≈ 1.48 µM) | 0.5 µg/mL (≈ 0.741 µM) | 2 µg/mL (≈ 2.96 µM) | 0.125 µg/mL (≈ 0.185 µM) | 0.5 µg/mL (≈ 0.741 µM) | 0.25 µg/mL (≈ 0.371 µM) | 0.5 µg/mL (≈ 0.741 µM) | 8 µg/mL (≈ 11.9 µM) | 0.5 µg/mL (≈ 0.741 µM) | > 128 µg/mL | 32 µg/mL (≈ 47.4 µM) | 64 µg/mL (≈ 94.9 µM) | 64 µg/mL (≈ 94.9 µM) | 16 µg/mL (≈ 23.7 µM) | 128 µg/mL (≈ 190 µM) | 
5 |  | CC(C)(O/N=C(\C(=O)N[C@@H]1C(=O)N2C(C(=O)[O-])=C(/C=C/C[n+]3cnc(N)c(NCCCCN)c3)CSC12)c1nc(N)sc1Cl)C(=O)O (some centres unmarked) [Compound 58] | 2 µg/mL (≈ 2.82 µM) | < 0.0625 µg/mL | 4 µg/mL (≈ 5.64 µM) | 16 µg/mL (≈ 22.6 µM) | 8 µg/mL (≈ 11.3 µM) | 2 µg/mL (≈ 2.82 µM) | 8 µg/mL (≈ 11.3 µM) | 0.5 µg/mL (≈ 0.705 µM) | 8 µg/mL (≈ 11.3 µM) | 2 µg/mL (≈ 2.82 µM) | 4 µg/mL (≈ 5.64 µM) | 32 µg/mL (≈ 45.1 µM) | 4 µg/mL (≈ 5.64 µM) | 32 µg/mL (≈ 45.1 µM) | 32 µg/mL (≈ 45.1 µM) | 8 µg/mL (≈ 11.3 µM) | > 128 µg/mL | 32 µg/mL (≈ 45.1 µM) | 64 µg/mL (≈ 90.2 µM) | 
